In assay [1] the test system is pan-nuclear γH2AX in HEK 293T cells. As to the kind of experiment: γH2AX immunofluorescence. The assay is classed as cell-based, human. To be noted: kinase inhibitor co-treated with AZ0108. As for the experimental part: HEK 293T or HEK 293 PARP-1 KO cells were seeded onto poly-d-lysine treated glass coverslips and treated with indicated concentrations of inhibitors for 18 hours. Cells were then washed with 1×PBS and fixed using 4% Sucrose/4% Paraformaldehyde in PBS for 20 minutes. After three washes in 1×PBS, cells were permeabilized in 0.3% Triton X-100 in PBS for 5 minutes followed by an additional three washes in 1×PBS. Coverslips were blocked in 3% BSA/0.1% Triton X-100 in PBS for 1 hour and then placed in primary anti-rabbit phosphoH2Ax antibody (1:200, Cell Signaling) overnight at 4° C. The next morning, cells were washed three times in 1×PBS and treated with blocking solution, 3% BSA/0.1% Triton X-100 in PBS, for 30 minutes before being placed in secondary anti-rabbit Alexa Fluor 647 (1:1000 Jackson Immuno) for 1 hour at RT. After three subsequent 1×PBS washes, coverslips were mounted using ProLong Gold antifade reagent with DAPI (Invitrogen). All immunofluorescence images were taken on a Zeiss ApoTome2 on Axiolmager and analyzed using Zeiss software. Mean intensity of the Alexa Fluor 647 signal was measured after imposing DAPI masks over the nucleus of each cell. All cells within a 20× image, was analyzed (˜3000 cells/condition).
Cell are stained for DAPI and γH2AX. Scale bar indicates 50 μm. FIG. 2B) Quantification of panel a. […] Error bars represent SEM. […] Error bars represent SEM. […] Error bars represent SEM.

Assay [2] concerns Ewing sarcoma cell line EW-8. The experiment in a line: ES-8 viability screen (CellTiter-Glo). The assay is classed as cell-based. As to conditions: for Fold Difference to Pip6: ratio of EC50 values; for EC50: viability, 72 h. As for the experimental part: Cell viability was measured using the CellTiter-Glo (Promega, G7573) assay and read using an Envision (PerkinElmer) plate reader. Compound source plates (96-well) were prepared by solubilizing each drug in DMSO to a maximum concentration of 1-50 mM, then arraying samples in 10-point dose-response with 3-fold dilution. Positive and negative controls (staurosporine at 10 mM and DMSO, respectively) were added to the source plates. Drug was transferred from the source plate to the assay plate using a Biomek FX (Beckman Coulter) liquid handler equipped with a pin tool which transferred ˜100 nl into a final volume of 100 μl, resulting in ˜1000-fold dilution. At least two biological replicates (assay performed on different day with same drug plate and independent cell preparation) were obtained for each drug. To analyze the assay, the relative light unit signal in each well was first log 2 transformed, then normalized by subtracting the mean of the negative controls wells on each plate.
FIGS. 6A-6E. […] 0.1 μM ad-olaparib (chemical structure indicated in panel a) was added to the cells for 1 hour before undergoing a UV treatment for 5 minutes in cold PBS. Cells were lysed and sonicated in PBS (1% Triton X-100+1% SDS), clicked with TAMRA-azide and run out on SDS-PAGE. The gel was imaged for TAMRA and probed for PARP-1 (Bethyl Laboratories), and alpha-tubulin (X). FIGS. 6B, 6D) Quantification of western blot images. TAMRA or ADPr values are normalized to PARP-1 within each replicate and plotted as percentage compared to DMSO. Error bars indicate SEM (n=3-4). Statistical significance of off-rate calculated via multiple t-tests (p<0.05). […] Cells were subsequently treated with PARGi (10 μM) for 30 minutes, lysed using RIPA buffer, run out on SDS-PAGE, and probed for ADPr (Cell Signaling) and PARP-1 (Bethyl Laboratories). FIG. 6E) ES-8 cells were treated with indicated concentration of inhibitors for 72 hours before measuring cell viability using the CellTiter-Glo kit (Promega G7573). IC50 values were calculated using R statistical software.
Background: ATP-based viability assays read luminescence as a measure of living cells.

The subject of assay [3] is HEK 293T cells. As to the kind of experiment: cell proliferation (MTT) assay. The assay is classed as cell-based, human. As to conditions: MTT, 72 h. As for the experimental part: HEK 293T or HEK 293 PARP-1 KO cells were seeded in a 96 well plate at 1000-2000 cells per well. Following an overnight incubation, MTT reagent, 3-(4,5-dimethylthiazol-2-yl)-2,5-diphenyltetrazolium bromide, or a dosage curve of indicated inhibitor was added to each well in quadruplicate. Following a 3-hour incubation at 37° C., wells containing MTT reagent, were aspirated and lysed with 100 μl DMSO. These wells acting as a no growth control were collected, saved @ −20° C., and replaced with 100 μl water. The plate was placed back into the incubator for a total of 72 hours of inhibitor treatment prior to MTT reagent being added for a final time. Following a 3 hour incubation with the reagent, wells were aspirated, and 100 μl DMSO were added to each well, while the no growth control sample was added back to the plate. Absorbance was read on a SpectraMaxi3 plate reader (Molecular Devices). Percent growth was calculated for analysis. Statistical significance was assigned using individual t-tests between conditions for each inhibitor dosage.
Error bars represent SEM. […] Error bars represent SEM. […] Error bars represent SEM.

The target in assay [4] is T1, PARP-1 (Homo sapiens, UniProt P09874). As to the kind of experiment: in vitro fluorescence polarization DNA competition assay. As to conditions: 25 μM compound; PARP-1 40 nM; nicked dumbbell DNA probe 20 nM. (Fluorescence polarisation rises when a labelled molecule tumbles more slowly, as on binding a larger partner.)
T1 sequence (P09874 whole entry): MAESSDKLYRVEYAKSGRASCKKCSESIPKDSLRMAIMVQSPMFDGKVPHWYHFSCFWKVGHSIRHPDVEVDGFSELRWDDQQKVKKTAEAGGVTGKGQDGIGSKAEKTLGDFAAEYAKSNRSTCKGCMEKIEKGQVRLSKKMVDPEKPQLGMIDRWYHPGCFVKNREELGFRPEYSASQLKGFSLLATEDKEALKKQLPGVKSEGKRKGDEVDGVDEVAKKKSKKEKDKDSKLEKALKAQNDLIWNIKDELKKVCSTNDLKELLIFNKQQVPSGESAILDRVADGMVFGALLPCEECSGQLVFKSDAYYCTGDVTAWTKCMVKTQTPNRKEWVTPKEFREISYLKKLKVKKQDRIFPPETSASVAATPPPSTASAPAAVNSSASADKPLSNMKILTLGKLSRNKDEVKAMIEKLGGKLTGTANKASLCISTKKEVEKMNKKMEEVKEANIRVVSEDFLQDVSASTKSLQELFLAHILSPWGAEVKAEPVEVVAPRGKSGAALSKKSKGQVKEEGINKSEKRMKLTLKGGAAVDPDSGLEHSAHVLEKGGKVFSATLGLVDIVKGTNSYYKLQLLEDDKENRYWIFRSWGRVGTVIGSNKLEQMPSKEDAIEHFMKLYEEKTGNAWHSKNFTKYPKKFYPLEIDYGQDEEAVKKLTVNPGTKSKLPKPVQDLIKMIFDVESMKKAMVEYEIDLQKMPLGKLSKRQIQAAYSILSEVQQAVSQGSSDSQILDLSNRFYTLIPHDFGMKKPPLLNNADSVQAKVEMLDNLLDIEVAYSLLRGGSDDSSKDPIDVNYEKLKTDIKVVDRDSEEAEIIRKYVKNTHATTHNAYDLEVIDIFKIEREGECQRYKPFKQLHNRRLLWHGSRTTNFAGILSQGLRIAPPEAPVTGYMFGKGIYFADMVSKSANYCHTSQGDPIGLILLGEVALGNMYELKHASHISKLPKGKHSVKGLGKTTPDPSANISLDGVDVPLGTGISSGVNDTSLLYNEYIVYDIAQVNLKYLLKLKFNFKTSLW
Method: The full-length WT PARP-1 protein used in these assays was purified as described previously (30).
An unlabeled competitor was added and the decrease in fluorescence polarization was measured across time.
Assay [5] addresses T1, PARP-1. As to the kind of experiment: in vitro PARP-1 auto-PARylation assay (SRPK2 plate assay). The assay is classed as biochemical. Set-up: The full-length WT PARP-1 protein used in these assays; made in house. To be noted: read-out: IC50 against PARP-1 catalytic activity (auto-PARylation). As for the experimental part: IC50 SRPK2 Plate Assays were performed as previously described (21). Log(inhibitor) versus response curves were fit using non-linear regression with variable slope. Mean IC50 values for each compound were derived from a minimum of three separate replicates.

Assay [6] deals with HEK 293T cells. As to the kind of experiment: analysis of cell cycle (DAPI, flow cytometry). To be noted: DAPI intensity, 18 hours. A general note: A flow cytometer gives signals particle by particle.
Method: After the indicated treatments, cells were washed twice with 1× PBS, trypsinized off of the plate, and washed an additional 2 times with 1×PBS. Cells were then permeabilized using 70% cold ethanol while vortexing before incubating for 30 min at 4° C. Cells were then washed three times with 1×PBS and counted using a hemocytometer to create a final pellet of 1×10^6 cells in for each inhibitor condition. 500 μl of DAPI solution (1 μg/ml DAPI, 0.1% Triton X-100 in PBS) was added to each cell pellet and incubated on ice for 30 min before being analyzed by flow cytometry using a BD Canto II. All data was analyzed on FlowJo software, gating for 20,000 singlet events. Manual cell cycle gates were set onto the DMSO control data using Watson modeling as reference. These gates were applied to all treatment conditions to obtain quantitative analysis.
Error bars represent SEM. […] Caspase-Glo 3/7 reagent was added to each well and luminescence was read after 30 minutes. […] Error bars represent SEM. […] Cell cycle was analyzed by flow cytometry (20,000 singlet events) and cell cycle statistics were calculated in FlowJo software against DMSO Watson modeling (n=3). FIG. 3F) DNA synthesis was measured using EdU incorporation. […] EdU incorporation was labelled using TAMRA azide click-chemistry and imaged at 20×. Mean intensity of TAMRA signal within DAPI masks analyzed using Zen software (n>3900 cells over 2 replicates). Values are normalized to the average DMSO control within each replicate. Error bars represent SEM. Statistical significance calculated via one-way ANOVA with Tukey's multiple comparisons test (p<0.05).
Assay [7] concerns Ser345 phosphorylation of Chk1 in HEK 293 cells. As to the kind of experiment: western blot analysis of phosphorylation of Chk1. To be noted: co-treatment with AZ0108.

In the case of `O=c1cc(-c2cccc3c2Sc2ccccc2S3)oc(N2CCOCC2)c1` [KU-55933], the “reduction of AZ0108-induced pan-nuclear γH2AX” value in assay [1] is listed as around 2 fold.
`O=c1cc(N2CCOCC2)oc2c(-c3cccc4c3sc3ccccc34)cccc12` [NU7441]: in assay [1], the “increase of AZ0108-induced pan-nuclear γH2AX” value is listed as around 1.3 fold.
What is called EC50 is the concentration that produces a half-maximal response. Take `NC(=O)c1cccc2cn(-c3ccc([C@@H]4CCCNC4)cc3)nc12` [Niraparib]: in assay [2], the “Fold Difference to Pip6” value was determined as 5693 and the EC50 was determined as 1380 nM.
Usually IC50 stands for the concentration that inhibits the measured activity by half. As to `O=C(c1cc(Cc2n[nH]c(=O)c3ccccc23)ccc1F)N1CCn2cnnc2C1` [Pip1, 4-(4-Fluoro-3-(5,6,7,8-tetrahydro-[1,2,4]triazolo[4,3-a]pyrazine-7-carbonyl)benzyl)phthalazin-1(2H)-one], the half-maximal effective concentration (EC50) with HEK 293T cells [3] (Homo sapiens, HEK-293T, read-out: EC50 cell growth) was around 6000 nM. In addition, the “exchange of the PARP-1:labled DNA complex with an unlabeled DNA competitor” value at PARP-1 [4] is on record as “very little impact”. In addition, at PARP-1 [5], the IC50 came out at 3.9 nM.
With `Cc1nnc2n1CCN(C(=O)c1cc(Cc3n[nH]c(=O)c4ccccc34)ccc1F)C2` [Pip2, 4-(4-Fluoro-3-(3-methyl-5,6,7,8-tetrahydro-[1,2,4]triazolo[4,3-a]pyrazine-7-carbonyl)benzyl) phthalazin-1(2H)-one], the “exchange of the PARP-1:labled DNA complex with an unlabeled DNA competitor” value on PARP-1 [4] is reported as “very little impact”.
With `O=C(c1cc(Cc2n[nH]c(=O)c3ccccc23)ccc1F)N1CCn2c(nnc2C(F)(F)F)C1` [Pip3, 4-(4-Fluoro-3-(3-(trifluoromethyl)-5,6,7,8-tetrahydro-[1,2,4]triazolo[4,3-a]pyrazine-7-carbonyl)benzyl) phthalazin-1(2H)-one], the “potency in inhibiting cell growth compared with AZ0108” value with HEK 293T cells [3] is listed as “substantially more potent than AZ0108”.
`CC(C)c1nnc2n1CCN(C(=O)c1cc(Cc3n[nH]c(=O)c4ccccc34)ccc1F)C2` [Pip4, 4-(4-Fluoro-3-(3-isopropyl-5,6,7,8-tetrahydro-[1,2,4]triazolo[4,3-a]pyrazine-7-carbonyl)benzyl) phthalazin-1(2H)-one]: the IC50 at PARP-1 [5] was 17.5 nM.
In the case of `CC(F)(F)c1nnc2n1CCN(C(=O)c1cc(Cc3n[nH]c(=O)c4ccccc34)ccc1F)C2` [Pip5, 4-(4-Fluoro-3-(3-(1,1-difluoroethyl)-5,6,7,8-tetrahydro-[1,2,4]triazolo[4,3-a]pyrazine-7-carbonyl)benzyl)phthalazin-1(2H)-one], the “potency in inhibiting cell growth compared with AZ0108” value in the assay with HEK 293T cells [3] is reported as “substantially more potent than AZ0108”.
In the case of `CNCc1ccc(-c2[nH]c3cc(F)cc4c3c2CCNC4=O)cc1` [Rucaparib], in assay [2], the “Fold Difference to Pip6” value amounted to 22998 and the EC50 came out at 5570 nM.
In the case of `CCc1c2c(nc3ccc(O)cc13)-c1cc3c(c(=O)n1C2)COC(=O)[C@]3(O)CC` [SN-38], in assay [2], the “Fold Difference to Pip6” value is reported as around 3 and the response was half-maximal at 0.75 nM (EC50).
As for `Oc1c2ccccc2c2c3c(cccc13)N=N2` [SP600125], in assay [1], the “reduction of AZ0108-induced pan-nuclear γH2AX” value is listed as around 2 fold.
With `Cn1ncnc1[C@H]1c2n[nH]c(=O)c3cc(F)cc(c23)N[C@@H]1c1ccc(F)cc1` [Talazoparib], in assay [2], the “Fold Difference to Pip6” value turned out to be 59 and the EC50 worked out at 14.2 nM.
For the compound `Cc1cn([C@H]2C[C@H](O)[C@@H](CO)O2)c(=O)[nH]c1=O` [Thymidine], in the assay with HEK 293T cells [6], the G1 was 2.79%, the G2 is 7.06% and the S is recorded as 76.3%.
With `CS(=O)(=O)c1ccc(-c2cnc(N)c(C(=O)Nc3ccccc3)n2)cc1` [VE-821], the “increase of AZ0108-induced pan-nuclear γH2AX” value in assay [1] is listed as around 1.3 fold. The “effect on AZ0108-induced Ser345 phosphorylation of Chk1” value in assay [7] was “significantly inhibited”.
As for `C[C@]1(c2nc3c(C(N)=O)cccc3[nH]2)CCCN1` [Veliparib], in assay [2], the “Fold Difference to Pip6” value came to 245827 and it took 59600 nM to reach a half-maximal effect (EC50).

For the origin of these results see patent US20240317762A1, “PHTHALAZINONE-BASED PARP-1 INHIBITORS” (Oregon Health & Science University, priority 2021, published 2024).
